Results from patent US20240408169A1 (priority 2023, published 2024).
*1 amine or outer side, *2 acyl side, *3 side chain or, on linkers, in order; H or OH if unused. Where a SMILES comes first, the peptide text is derived from it. Bridges are numbered along the chain shown (N, C = ends). [ ]: non-standard residue; d: D form. The star is where a group is joined. X58 = CC(C)C(=O)N1CC=C(c2ccc(Cl)cc2C[C@@H](C(=O)[*:2])N(C)[*:1])CC1; X100 = CC(=O)NC1CC=C(c2ccc(Cl)cc2C[C@@H](C(=O)[*:2])N(C)[*:1])CC1; X84 = CC(=O)N1CCC(c2ccc(Cl)cc2C[C@@H](C(=O)[*:2])N(C)[*:1])CC1; X54 = CN([C@@H](Cc1cc(F)ccc1-c1cnn(C2CCC2)c1)C(=O)[*:2])[*:1]; X26 = CN([C@@H](Cc1cc(F)ccc1-c1cnn(C2CC2)c1)C(=O)[*:2])[*:1]; NMehhhLys(Me) = CN([C@@H](CCCCCCCN(C)[*:3])C(=O)[*:2])[*:1]; X112 = CN([C@@H](Cc1cc(F)ccc1-c1cnn(C)c1)C(=O)[*:2])[*:1]; X22 = CN([C@@H](Cc1cc(Cl)ccc1-c1cnn(C)c1)C(=O)[*:2])[*:1]; X104 = CN([C@@H](Cc1cc(Cl)ccc1C1=CCOCC1)C(=O)[*:2])[*:1]; NMe(hhhLys) = CN([C@@H](CCCCCCCN[*:3])C(=O)[*:2])[*:1]; Cyclobutanecarbonyl(1-CF3) = O=C(C1(C(F)(F)F)CCC1)*; X88 = CC(C)c1ccc(Cl)cc1C[C@@H](C(=O)[*:2])N(C)[*:1]; cBuCO(3,3-F2-1-CF3) = O=C(C1(C(F)(F)F)CC(F)(F)C1)*; Pro(trans-4-F) = O=C(O)[C@@H]1C[C@@H](F)CN1; Gly(cPr) = N[C@H](C(=O)O)C1CC1

Tests used:
CyclinB1/CDK1 = biological target: T1, CyclinB1/CDK1 (Homo sapiens, UniProt P14635); assay: Fluorescence Polarization (FP) competitive binding assay, Cyclin B1/Cdk1; settings: 10 nM Cyclin B1/Cdk1, 2 nM FAM probe; average of 2-3 independent experiments; read-out: Cyclin B FP IC50;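 further: fluorescence polarization read after equilibration at room temperature, with IC50 taken from serially diluted dose-response curves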
T1 construct: purchased Eurofins, discovery 14-450

CyclinE1/CDK2 = biological target: T2, CyclinE1/CDK2 (Homo sapiens, UniProt P24864); assay: Fluorescence Polarization (FP) competitive binding assay, Cyclin E1/Cdk2; settings: 10 nM Cyclin E1/Cdk2, 2 nM FAM probe; average of 2-3 independent experiments; read-out: Cyclin E FP IC50;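 further: readings taken after two-hour equilibration at room temperature in HEPES buffer with NaCl, DTT, NP-40 and BSA, IC50 fitted from eight-concentration serial dilution series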
T2 construct: purchased Eurofins, discovery 14-475

NCI-H1048 cells = assay: MTT proliferation assay, NCI-H1048; type: cell-based; settings: 5 days compound exposure, 1:3 serial dilution starting at 10 μM;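 further: Dose-response in 96-well plates over 8 or 10 concentration points, with exposure spanning 3-4 cell doublings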
OVCAR3 cells = assay: MTT proliferation assay, OVCAR3; type: cell-based; settings: 5 days compound exposure, 1:3 serial dilution starting at 10 μM;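 further: compound given as an 8- or 10-point series, one day after plating, with exposure covering roughly 3-4 cell doublings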
CyclinA2/CDK2 = biological target: T3, CyclinA2/CDK2 (Homo sapiens, UniProt P20248); assay: Fluorescence Polarization (FP) competitive binding assay, Cyclin A2/Cdk2; settings: 8 nM Cyclin A2/Cdk2, 2 nM FAM probe; average of 2-3 independent experiments; read-out: Cyclin A FP IC50;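 further: plates equilibrated two hours at room temperature before polarization reading, IC50 fitted from eight-concentration compound titration curves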
T3 construct: purchased CRELUX Protein Services

WI-38 cells = assay: MTT proliferation assay, WI-38; type: cell-based; settings: 3 days compound exposure, 1:3 serial dilution starting at 10 μM;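 further: Eight- or ten-point dilution series, with exposure length chosen to span about three to four cell doublings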

Structure (SMILES)	IC50 (CyclinB1/CDK1) [nM]	IC50 (CyclinE1/CDK2) [nM]	GI50 (NCI-H1048 cells) [nM]	GI50 (OVCAR3 cells) [nM]	IC50 (CyclinA2/CDK2) [nM]	GI50 (WI-38 cells) [nM]
CC(C)C[C@@H]1NC(=O)[C@@H](N(C)C(=O)[C@@H](NC(=O)[C@@H]2C[C@@H](F)CN2C(=O)C2(C(F)(F)F)CC(F)(F)C2)C2CC2)CCCCCCCN(C)C(=O)[C@H](Cc2cc(Cl)ccc2C2=CCOCC2)N(C)C1=O [Example 51] ({cBuCO(3,3-F2-1-CF3)}-[Pro(trans-4-F)][Gly(cPr)][NMehhhLys(Me)]L[X104]; lactam 3-C)	20	890	10	10	20	18800
CC(=O)N1CCC(c2ccc(Cl)cc2C[C@H]2C(=O)N(C)CCCCCCC[C@H](N(C)C(=O)[C@@H](NC(=O)[C@@H]3C[C@@H](F)CN3C(=O)C3(C(F)(F)F)CC(F)(F)C3)C3CC3)C(=O)N[C@@H](CC(C)C)C(=O)N2C)CC1 [Example 52] ({cBuCO(3,3-F2-1-CF3)}-[Pro(trans-4-F)][Gly(cPr)][NMehhhLys(Me)]L[X84]; lactam 3-C)	20	1130	10	10	40	13100
CCOC(=O)N1CC=C(c2ccc(Cl)cc2C[C@H]2C(=O)NCCCCC=CC[C@H](N(C)C(=O)[C@@H](NC(=O)[C@@H]3C[C@@H](F)CN3C(=O)C3(C(F)(F)F)CC(F)(F)C3)C3CC3)C(=O)N[C@@H](CC(C)C)C(=O)N2C)CC1 [Example 53, Ethyl 4-(4-chloro-2-(((3S,6S,9S)-9-((S)-2-cyclopropyl-2-((2S,4R)-1-(3,3-difluoro-1-(trifluoromethyl)cyclobutane-1-carbonyl)-4-fluoropyrrolidine-2-carboxamido)-N-methylacetamido)-6-isobutyl-4-methyl-2,5,8-trioxo-1,4,7-triazacyclohexadec-11-en-3-yl)methyl)phenyl)-3,6-dihydropyridine-1 (2H)-carboxylate]	20	12400	180	180	90	4500
CC(=O)NC1CC=C(c2ccc(Cl)cc2C[C@H]2C(=O)N(C)CCCCCCC[C@H](N(C)C(=O)[C@@H](NC(=O)[C@@H]3C[C@@H](F)CN3C(=O)C3(C(F)(F)F)CC(F)(F)C3)C3CC3)C(=O)N[C@@H](CC(C)C)C(=O)N2C)CC1 (stereo partly drawn) [Example 60] ({cBuCO(3,3-F2-1-CF3)}-[Pro(trans-4-F)][Gly(cPr)][NMehhhLys(Me)]L[X100]; lactam 3-C)	20	740	10	10	20	5720
CC(C)C[C@@H]1NC(=O)[C@@H](N(C)C(=O)[C@@H](NC(=O)[C@@H]2C[C@@H](F)CN2C(=O)C2(C(F)(F)F)CC(F)(F)C2)C2CC2)CCCCCCCNC(=O)[C@H](Cc2cc(Cl)ccc2C(C)C)N(C)C1=O [Example 63] ({cBuCO(3,3-F2-1-CF3)}-[Pro(trans-4-F)][Gly(cPr)][NMe(hhhLys)]L[X88]; lactam 3-C)	20	3510	110	240	120	3170
CC(C)C[C@@H]1NC(=O)[C@@H](N(C)C(=O)[C@@H](NC(=O)[C@@H]2C[C@@H](F)CN2C(=O)C2(C(F)(F)F)CC(F)(F)C2)C2CC2)CCCCCCCN(C)C(=O)[C@H](Cc2cc(F)ccc2-c2cnn(C3CC3)c2)N(C)C1=O [Example 68] ({cBuCO(3,3-F2-1-CF3)}-[Pro(trans-4-F)][Gly(cPr)][NMehhhLys(Me)]L[X26]; lactam 3-C)	20	120	10	10	20	12800
CC(C)C[C@@H]1NC(=O)[C@@H](N(C)C(=O)[C@@H](NC(=O)[C@@H]2C[C@@H](F)CN2C(=O)C2(C(F)(F)F)CCC2)C2CC2)CCCCCCCN(C)C(=O)[C@H](Cc2cc(F)ccc2-c2cnn(C)c2)N(C)C1=O [Example 69] ({Cyclobutanecarbonyl(1-CF3)}-[Pro(trans-4-F)][Gly(cPr)][NMehhhLys(Me)]L[X112]; lactam 3-C)	20	110	10	10	20	17600
CC(C)C[C@@H]1NC(=O)[C@@H](N(C)C(=O)[C@@H](NC(=O)[C@@H]2C[C@@H](F)CN2C(=O)C2(C(F)(F)F)CCC2)C2CC2)CCCCCCCNC(=O)[C@H](Cc2cc(Cl)ccc2-c2cnn(C)c2)N(C)C1=O [Example 70] ({Cyclobutanecarbonyl(1-CF3)}-[Pro(trans-4-F)][Gly(cPr)][NMe(hhhLys)]L[X22]; lactam 3-C)	20	290	10	10	20	10100
CC(C)C[C@@H]1NC(=O)[C@@H](N(C)C(=O)[C@@H](CC(=O)[C@@H]2C[C@@H](F)CN2C(=O)C2(C(F)(F)F)CC(F)(F)C2)C2CC2)CCCCCCN(C)C(=O)[C@H](Cc2cc(Cl)ccc2C2=CCOCC2)N(C)C1=O [Example 71]	20	1590	70	90	20	13800
CC(C)C[C@@H]1NC(=O)[C@@H](N(C)C(=O)[C@@H](NC(=O)[C@@H]2C[C@@H](F)CN2C(=O)C2(C(F)(F)F)CC(F)(F)C2)C2CC2)CCCCCCN(C)C(=O)[C@H](Cc2cc(Cl)ccc2-c2cnn(C)c2)N(C)C1=O [Example 72]	20	1050	40	60	30	14900
CC(C)C[C@@H]1NC(=O)[C@@H](N(C)C(=O)[C@@H](NC(=O)[C@@H]2C[C@@H](F)CN2C(=O)C2(C(F)(F)F)CC(F)(F)C2)C2CC2)CCCCCCN(C)C(=O)[C@H](Cc2cc(Cl)ccc2-c2cnn(C3CC3)c2)N(C)C1=O [Example 73]	20	930	40	60	30	3650
CC(C)C[C@@H]1NC(=O)[C@@H](N(C)C(=O)[C@@H](NC(=O)[C@@H]2C[C@@H](F)CN2C(=O)C2(C(F)(F)F)CC(F)(F)C2)C2CC2)CC=CCCCCN(C)C(=O)[C@H](Cc2cc(Cl)ccc2-c2cnn(C3CC3)c2)N(C)C1=O [Example 78]	20	640	30	40	40	4520
COCn1cc(-c2ccc(Cl)cc2C[C@H]2C(=O)N(C)CCCCC=CC[C@H](N(C)C(=O)[C@@H](NC(=O)[C@@H]3C[C@@H](F)CN3C(=O)C3(C(F)(F)F)CCC3)C3CC3)C(=O)N[C@@H](CC(C)C)C(=O)N2C)cn1 [Example 80]	20	300	30	30	40	11600
CC(C)C[C@@H]1NC(=O)[C@@H](N(C)C(=O)[C@@H](NC(=O)[C@@H]2C[C@@H](F)CN2C(=O)C2(C(F)(F)F)CCC2)C2CC2)CC=CCCCCN(C)C(=O)[C@H](Cc2cc(Cl)ccc2-c2cnn(C3CC3)c2)N(C)C1=O [Example 81]	20	300	40	50	40	4300
CC(C)C[C@@H]1NC(=O)[C@@H](N(C)C(=O)[C@@H](NC(=O)[C@@H]2C[C@@H](F)CN2C(=O)C2(C(F)(F)F)CC(F)(F)C2)C2CC2)CC=CCCCCN(C)C(=O)[C@H](Cc2cc(F)ccc2-c2cnn(C3CCC3)c2)N(C)C1=O [Example 88]	20	200	30	30	50	7640
CC(C)C[C@@H]1NC(=O)[C@@H](N(C)C(=O)[C@@H](NC(=O)[C@@H]2C[C@@H](F)CN2C(=O)C2(C(F)(F)F)CC(F)(F)C2)C2CC2)CC=CCCCCNC(=O)[C@H](Cc2cc(Cl)ccc2C2=CCN(C(=O)C3CC3)CC2)N(C)C1=O [Example 89]	20	5410	310	380	120	4340
CC(C)C[C@@H]1NC(=O)[C@@H](N(C)C(=O)[C@@H](NC(=O)[C@@H]2C[C@@H](F)CN2C(=O)C2(C(F)(F)F)CC(F)(F)C2)C2CC2)CC=CCCCCNC(=O)[C@H](Cc2cc(Cl)ccc2C2=CCN(C(=O)C(C)C)CC2)N(C)C1=O [Example 90]	20	3700	260	230	90	4130
CC(C)C[C@@H]1NC(=O)[C@@H](N(C)C(=O)[C@@H](NC(=O)[C@@H]2C[C@@H](F)CN2C(=O)C2(C(F)(F)F)CC(F)(F)C2)C2CC2)CCCCCCCN(C)C(=O)[C@H](Cc2cc(F)ccc2-c2cnn(C3CCC3)c2)N(C)C1=O [Example 96] ({cBuCO(3,3-F2-1-CF3)}-[Pro(trans-4-F)][Gly(cPr)][NMehhhLys(Me)]L[X54]; lactam 3-C)	20	120	10	10	20	8920
CC(C)C[C@@H]1NC(=O)[C@@H](N(C)C(=O)[C@@H](NC(=O)[C@@H]2C[C@@H](F)CN2C(=O)C2(C(F)(F)F)CC(F)(F)C2)C2CC2)CCCCCCCNC(=O)[C@H](Cc2cc(Cl)ccc2C2=CCN(C(=O)C(C)C)CC2)N(C)C1=O [Example 98] ({cBuCO(3,3-F2-1-CF3)}-[Pro(trans-4-F)][Gly(cPr)][NMe(hhhLys)]L[X58]; lactam 3-C)	20	1100	20	20	20	16400
